The test system of one experiment is cells. The experiment in a line: Intracellular pH response of dye-loaded cells under perfusion with pH standards (nigericin/valinomycin). The format is cell-based. The settings on record: 5 μM loading; potassium LCIS pH standards 7.4, 7.2, 6.5, 6.0; nigericin and valinomycin 10 μM each. As for the experimental part:
10 mL loading buffer, Compound (4): 10 μL Compound (4) from a 5 mM DMSO stock was added to 100 μL Powerload and mixed. 10 mL LCIS was added to this solution for final concentration of Compound (4) of 5 μM.
Cells were cultured on 35 mm MatTek glass bottom dishes. For loading, cells were rinsed 1× with LCIS and replaced with loading buffer described above. Cells were incubated at 37° C. for 60 minutes, then rinsed 2× with LCIS and imaged with standard TRITC or FITC filter sets. (see FIG. 5).
Cells were cultured and loaded as described above with Compound (4). This solution was removed from the cells and replaced with potassium LCIS pH 7.4 standard and imaging experiments begun with cells under constant perfusion by potassium LCIS pH standards of pH 7.4, 7.2, 6.5, and 6.0. […] (Nigericin and valinomycin added at 10 μM each from DMSO stock.) Images of Compound (4) AM loaded cells at pH 7.4 and 6.0 are shown in FIG. 6. Functional kinetic responses from individually selected cells in the sample are shown in FIG. 7 as the pH was changed from 7.4 to 6.0 and back.

Experiment [1] relates to J774.2 murine macrophages. The experiment is described as follows: No-wash phagocytosis assay with E. coli bioparticles conjugated to pH-sensitive dye. The format is cell-based. The note with it: E. coli bioparticle-dye conjugates, J774.2 macrophages. The text has this: Certain embodiments provide a no-wash, no-quench assay for phagocytosis that is based on fluorogenic bioparticles comprising the pH-sensitive fluorescent dye compounds provided herein. Current protocols for measuring phagocytosis that use fluorescent bioparticles, require a trypan blue quenching step and several washing steps. These steps can introduce significant variability in the assay. To address this issue, provided herein is a no-wash phagocytosis kit, using E. coli bioparticles conjugated to a pH-sensitive fluorescent dye as described herein. These bioparticle conjugates are weakly fluorescent at extracellular pH. […] The pH-sensitive fluorescent bioparticles described herein may be used in plate based, as well as imaging and flow cytometry assays of phagocytosis.

On to `CCN(CCCC(=O)NCCCCC(C(=O)OCOC(C)=O)N(CC(=O)OCOC(C)=O)CC(=O)OCOC(C)=O)c1cc(OC)c(-c2c3ccc(=[N+](C)C)cc-3oc3cc(N(C)C)ccc23)cc1N(C)C` (centres unmarked) [Compound (4), N-(9-(4-((8-(2-(acetoxymethoxy)-2-oxoethyl)-9-((acetoxymethoxy)carbonyl)-2,6,15-trioxo-3,5-dioxa-8,14-diazaoctadecan-18-yl)(ethyl)amino)-5-(dimethylamino)-2-methoxyphenyl)-6-(dimethylamino)-3H-xanthen-3-ylidene)-N-methylmethanaminium], for which the “signal from the dye inside of the cells as external pH changed” value in the experiment on cells is listed as “the signal from the dye inside of the cells changed”.

As to cytochalaisin D, the “uptake of the bioparticles (phagocytosis)” value in experiment [1] was “potently inhibited”.

The record behind these values is patent publication US10253185B2, “Fluorogenic pH-sensitive dyes and their methods of use (II)” (LIFE TECHNOLOGIES CORPORATION, priority 2012, dated 2019).
